# US20060165761A1, “Wound dressings comprising vanadate complexed with organic ligands” (priority 2002, published 2006)
# What was measured:
# Adult dermal fibroblasts [1] = assay: Determination of collagen levels (ELISA) deposited by fibroblasts; format: cell-based; conditions: for ability to stimulate collagen deposition (overall summary): absence of growth factors
# Description: (§1) Adult dermal fibroblasts were grown until 95% confluent, trypsinized (2 ml trypsin plate) to prepare a single suspension of fibroblasts. These cells were diluted in DMEM (+10% FBS) media and diluted to a concentration of 25000 cells/ml. […] was placed in each well of a 96 well microplate (2500 cells/well). The fibroblasts were allowed to adhere and spread by incubating for 24 hours (at 37° C., 5% CO2 in a humidified atmosphere) at which point the media was removed and replaced with serum free DMEM+/−stimulant/sample.
# (§2) The following vanadate complexes were added in quadruplicate: bpV(pic) was added to a final concentration of 8.14 and 0.81 μM, bpV(bipy) (bisperoxo(bipyridine)oxovanadate) was added to a final concentration of 178 and 17.8 μM. bpV(phen) was added to a final concentration of 12 or 0.124 μM, DMHV (bis-dimethylhydroxamido vanadate, (Me2N—O)2VO(OH)) was added to a final concentration of […]. The vanadate complexes were all obtained as the solid potassium salts from Calbiochem, Catalog numbers 203705, 322130, and 203695.
# (§3) Negative control samples were untreated and positive control samples were cells treated with DMEM containing 10% FBS or 0.15 ng/ml epidermal growth factor. As a further positive control, Dephostatin (a known tyrosine protein phosphatase inhibitor obtained from Calbiochem, catalog number 263200) was added to a final concentration of 23.8 μM.
# Additional experiments were performed using the phosphatase inhibitors indicated above in the presence of epidermal growth factor (0.015 ng/ml) or platelet derived growth factor (6 ng/ml).
# The amount of collagen produce and deposited into the extracellular environment under each experimental condition was measured using an ELISA method. Collagen type I standards (Sigma cat no 7774, lot 32K3775) and material aspirated from the fibroblasts were coated onto 96 well plates (FALCON 3072) by incubation at 37° C. for 30 min. Non-specific sites were blocked by the addition of […] of 5% solution of bovine serum albumin (BSA) for 30 min. Each well was incubated with a monoclonal antibody against collagen used at a dilution of 1/2000 ((sigma cat no. 2456, lot 081K4897) overnight at 4° C. Samples were washed five times for 5 minutes in wash buffer (PBS+0.05% (v/v) TWEEN-20) and incubated with an HRP-conjugated second antibody against mouse IgG at a dilution of 1/10000 for 2 hr. Each well was washed five times in wash buffer. Deposited collagen was detected using the Sigma FAST method used according to the manufacturers instructions. The plates were incubated at room temperature for 30 minutes and read using a MR5000 plate reader at 450 nm.
# Adult dermal fibroblasts [2] = assay: XTT cell proliferation assay; format: cell-based; conditions: for amount of fibroblast proliferation (FIG. 2): 72 hrs; for ability to stimulate cell proliferation (overall summary): absence of growth factors
# Description: as §1, §2
# as §3, with “μM. […]” for “μM.”
# After 72 hrs the fluid was aspirated off and […] of the XTT labelling mixture (prepared by adding 0.1 ml Electron coupling reagent to every 5 mls of XTT labelling reagent) was added to each well. The plates were read at 450 nm, using a MR5000 plate reader at 2, 2.5 and 3.5 hrs.
# acute wounds in rats = conditions: vanadate ingestion; cited from earlier work
# [3] = system: capillary endothelial cells; conditions: in vitro; mimics fibroblast growth factor; cited from earlier work
# bone cell = conditions: in vitro; cited from earlier work
compound,measurement,setting,value
"CN(N=O)c1cc(O)ccc1O [Dephostatin, reference compound]",amount of collagen deposited by fibroblasts (FIG. 1),"Adult dermal fibroblasts [1]; 23.8 μM, compared to positive control",equivalent to the positive control
same,amount of fibroblast proliferation (FIG. 2),"Adult dermal fibroblasts [2]; 23.8 μM, compared to negative control",greater than the negative control
"[Na+].[Na+].[Na+].[O]=[V]([O-])([O-])[O-] [vanadate, Sodium Orthovanadate]",gain in wound breaking strength,acute wounds in rats,increases
same,organisation of collagen fibres during healing,acute wounds in rats,better organised collagen fibres
same,endothelial cells invade collagen matrices and organise into tubules,[3],stimulates endothelial cells to invade collagen matrices and organise into tubules
same,bone cell proliferation,bone cell,stimulates
same,bone collagen synthesis,bone cell,stimulates
bisperoxo(bipyridine)oxovanadate [bpV(bipy)],amount of collagen deposited by fibroblasts (FIG. 1),"Adult dermal fibroblasts [1]; 17.8 μM, compared to positive control",equivalent to the positive control
same,amount of fibroblast proliferation (FIG. 2),"Adult dermal fibroblasts [2]; 17.8 μM, compared to negative control",greater than the negative control
Bisperoxo (5-hydroxy pyridine-2-carboxyvanadate) [bpV(pic)],amount of collagen deposited by fibroblasts (FIG. 1),"Adult dermal fibroblasts [1]; 8.14 μm, compared to non treated negative control and FBS and EGF positive controls",most effective activator of collagen deposition
same,ability to stimulate collagen deposition (overall summary),Adult dermal fibroblasts [1],more effective than even the 10% FBS positive control
same,amount of fibroblast proliferation (FIG. 2),"Adult dermal fibroblasts [2]; 8.14 μM, compared to non treated negative control and FBS and EGF positive controls",most effective activator cell proliferation
same,amount of fibroblast proliferation (FIG. 3),"Adult dermal fibroblasts [2]; 8.14 μM, compared to non treated and vanadate at 0.1 and 0.01 mmolar",more effective activator of cell proliferation
same,ability to stimulate cell proliferation (overall summary),Adult dermal fibroblasts [2],more effective than even the 10% FBS positive control
"[O-2].[O-][O-].[O-][O-].[V+5].c1cnc2c(c1)ccc1cccnc12 [bpV(phen), bisperoxo-(1,10-phenanthroline)-oxovanadate]",ability to stimulate collagen deposition (overall summary),Adult dermal fibroblasts [1]; listed as bpV (phen),exception
same,ability to stimulate collagen deposition (overall summary),Adult dermal fibroblasts [1]; listed as bpV(Phen),does not enhance
same,ability to stimulate cell proliferation (overall summary),Adult dermal fibroblasts [2]; listed as bpV (Phen),inhibitor of proliferation
same,ability to stimulate cell proliferation (overall summary),Adult dermal fibroblasts [2]; listed as bpV (phen),exception
same,ability to stimulate cell proliferation (overall summary),Adult dermal fibroblasts [2]; listed as bpV(Phen),does not enhance
"CN(C)[O][V](=[O])([OH])[O]N(C)C [DMHV, bis-dimethylhydroxamido vanadate, (Me2N—O)2VO(OH)]",amount of collagen deposited by fibroblasts (FIG. 1),"Adult dermal fibroblasts [1]; 6.4-64 μM, compared to positive control",equivalent to the positive control
same,ability to stimulate collagen deposition (overall summary),Adult dermal fibroblasts [1],equivalent to the DMHV positive control
same,amount of fibroblast proliferation (FIG. 2),"Adult dermal fibroblasts [2]; 64 μM, compared to negative control",greater than the negative control
same,ability to stimulate cell proliferation (overall summary),Adult dermal fibroblasts [2],equivalent to the DMHV positive control
